Data from patent publication US12012410B2, “Substituted pyrazolo[1,5-a]pyrazines for spinal muscular atrophy” (REBORNA BIOSCIENCES, INC., priority 2018, dated 2024).

Each compound was assayed on FL-SMN mRNA (SMN transcript containing exons 7 and 8) (assay: Live-cell assay to measure changes in FL-SMN mRNA levels (qPCR) after exposure to the compounds). Conditions: fibroblasts derived from patients SMA (GM03813); 24 hours incubation.
Type: cell-based, human
Outline: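 SMA patient fibroblasts (GM03813) in DMEM/10% FBS were treated with compound (0.1% DMSO final) for 24 h. FL-SMN and Δ7 mRNA were measured by RT-qPCR against oligo DNA standard curves and normalised to GAPDH. Values are % of the DMSO control, binned by asterisk from ≥100% to ≥180%.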

SMILES | Percentage of increase (FL-SMN mRNA standardized against GAPDH, DMSO control set as 100%)
Cc1cn2nc(-c3nc4ccc(N5CCN6CCCCC6C5)cc4c(=O)[nH]3)cc2c(C)n1 (stereo not drawn) [Example 124, 2-(4,6-dimethylpyrazolo[1,5-a]pyrazin-2-yl)-6-(octahydro-2H-pyrido[1,2-a]pyrazin-2-yl)quinazolin-4(3H)-one] | *** (equal to or higher than 150% but lower than 180%)
Cc1cn2nc(-c3nc4ccc(N5CCN6CCCCC6C5)cc4c(=O)[nH]3)cc2c(C)n1 (stereo not drawn) [Example 125, 2-(4,6-dimethylpyrazolo[1,5-a]pyrazin-2-yl)-6-(octahydro-2H-pyrido[1,2-a]pyrazin-2-yl)quinazolin-4(3H)-one (distomer)] | ** (equal to or higher than 120% but lower than 150%)
Cc1cn2nc(-c3nc4ccc(N5CCN6CCC[C@@H]6C5)cc4c(=O)[nH]3)cc2c(C)n1 [Example 126, (R)-2-(4,6-dimethylpyrazolo[1,5-a]pyrazin-2-yl)-6-(hexahydropyrrolo[1,2-a]pyrazin-2(1H)-yl)quinazolin-4(3H)-one] | **** (equal to or higher than 180%)
Cc1cn2nc(-c3nc4ccc(N5CCN(C)C[C@@H]5C)cc4c(=O)[nH]3)cc2c(C)n1 [Example 127, (S8)-6-(2,4-simethylpiperazin-1-yl)-2-(4,6-dimethylpyrazolo[1,5-a]pyrazin-2-yl)quinazolin-4(3H)-one] | *** (equal to or higher than 150% but lower than 180%)
Cc1cn2nc(-c3nc4ccc(N5CCN(C)C[C@H]5C)cc4c(=O)[nH]3)cc2c(C)n1 [Example 128, (R)-6-(2,4-simethylpiperazin-1-yl)-2-(4,6-dimethylpyrazolo[1,5-a]pyrazin-2-yl)quinazolin-4(3H)-one] | **** (equal to or higher than 180%)
CC[C@H]1CN(C)CCN1c1ccc2nc(-c3cc4c(C)nc(C)cn4n3)[nH]c(=O)c2c1 [Example 129, (S)-2-(4,6-dimethylpyrazolo[1,5-a]pyrazin-2-yl)-6-(2-ethyl-4-methylpiperazin-1-yl)quinazolin-4(3H)-one] | *** (equal to or higher than 150% but lower than 180%)
CCN1CCN(c2ccc3nc(-c4cc5c(C)nc(C)cn5n4)[nH]c(=O)c3c2)[C@@H](C)C1 [Example 130, (S)-2-(4,6-dimethylpyrazolo[1,5-a]pyrazin-2-yl)-6-(4-ethyl-2-methylpiperazin-1-yl)quinazolin-4(3H)-one] | *** (equal to or higher than 150% but lower than 180%)
CCN1CCN(c2ccc3nc(-c4cc5c(C)nc(C)cn5n4)[nH]c(=O)c3c2)[C@H](C)C1 [Example 131, (R)-2-(4,6-dimethylpyrazolo[1,5-a]pyrazin-2-yl)-6-(4-ethyl-2-methylpiperazin-1-yl)quinazolin-4(3H)-one] | *** (equal to or higher than 150% but lower than 180%)
CC[C@@H]1CN(C)CCN1c1ccc2nc(-c3cc4c(C)nc(C)cn4n3)[nH]c(=O)c2c1 [Example 132, (R)-2-(4,6-dimethylpyrazolo[1,5-a]pyrazin-2-yl)-6-(2-ethyl-4-methylpiperazin-1-yl)quinazolin-4(3H4)-one] | *** (equal to or higher than 150% but lower than 180%)
